± gives the standard deviation of the averaged measurements.
Columns and labels:
Experiment in all cases: relative viability vs DMSO control (72 h) (fraction); higher = more viable cells
G401 = system: G401
How it was run: (§1)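 Densities for seeding sarcoma cell lines into 384-well plates were set to give 80–90% confluence. After 24 h, 2.5 µl of serially diluted compound from source plates of 10 mM to 0.0002 mM went in, and plates stayed 72 h at 37 °C in 5% CO2 with 0.1% DMSO vehicle and a 5 µM positive control. Percent growth from ATPLite readings, averaged over up to triplicate wells, served as relative viability, rescaled so 1 means full and 0 means none.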

HT1080 = system: HT1080
How it was run: as §1

KHOS-NP = system: KHOS-NP
How it was run: as §1

MES-SA = system: MES-SA
How it was run: as §1

RD-ES = system: RD-ES
How it was run: as §1

RD = system: RD
How it was run: as §1

SK-ES-1 = system: SK-ES-1
How it was run: as §1

SK-LMS-1 = system: SK-LMS-1
How it was run: as §1

SW1353 = system: SW1353
How it was run: as §1

SW684 = system: SW684
How it was run: as §1

SW872 = system: SW872
How it was run: as §1

VA-ES-BJ = system: VA-ES-BJ
How it was run: as §1

`COC(=O)N[C@@H](C)CNc1nccc(-c2cn(C(C)C)nc2-c2cc(Cl)cc(NS(C)(=O)=O)c2F)n1` [Encorafenib] gave a relative viability (G401; 0.00017 µM) of 0.975 ± 0.037, a relative viability (G401; 0.00051 µM) of 1.01 ± 0.032 and a relative viability (G401; 0.00152 µM) of 0.9948 ± 0.0064. For the same compound, the relative viability (G401; 0.00457 µM) was 1.01 ± 0.021, the relative viability (G401; 0.01372 µM) was 1.02 ± 0.022 and the relative viability (G401; 0.04115 µM) was 1.06 ± 0.053. The relative viability (G401; 0.1235 µM) was 1.04 ± 0.05, the relative viability (G401; 0.3704 µM) was 1.01 ± 0.029 and the relative viability (G401; 1.111 µM) was 0.841 ± 0.028. It also gave a relative viability (G401; 3.333 µM) of 0.653 ± 0.013, a relative viability (G401; 10 µM) of 0.5834 ± 0.004 and a relative viability (HT1080; 0.00017 µM) of 1.06 ± 0.04. For the same compound, the relative viability (HT1080; 0.00051 µM) was 1.09 ± 0.035, the relative viability (HT1080; 0.00152 µM) was 1.07 ± 0.018 and the relative viability (HT1080; 0.00457 µM) was 1.08 ± 0.063. The relative viability (HT1080; 0.01372 µM) was 1.09 ± 0.027, the relative viability (HT1080; 0.04115 µM) was 1.08 ± 0.03 and the relative viability (HT1080; 0.1235 µM) was 1.06 ± 0.034. For the same compound, the relative viability (HT1080; 0.3704 µM) was 1.08 ± 0.048, the relative viability (HT1080; 1.111 µM) was 0.885 ± 0.051 and the relative viability (HT1080; 3.333 µM) was 0.715 ± 0.035. The relative viability (HT1080; 10 µM) was 0.765 ± 0.076, the relative viability (KHOS-NP; 0.00017 µM) was 1.01 ± 0.033 and the relative viability (KHOS-NP; 0.00051 µM) was 1.01 ± 0.015. It also gave a relative viability (KHOS-NP; 0.00152 µM) of 1.03 ± 0.034, a relative viability (KHOS-NP; 0.00457 µM) of 1.02 ± 0.031 and a relative viability (KHOS-NP; 0.01372 µM) of 1.01 ± 0.042. The relative viability (KHOS-NP; 0.04115 µM) was 0.99 ± 0.063, the relative viability (KHOS-NP; 0.1235 µM) was 1.03 ± 0.018 and the relative viability (KHOS-NP; 0.3704 µM) was 0.984 ± 0.067. The relative viability (KHOS-NP; 1.111 µM) was 0.851 ± 0.069, the relative viability (KHOS-NP; 3.333 µM) was 0.528 ± 0.027 and the relative viability (KHOS-NP; 10 µM) was 0.435 ± 0.024. It also gave a relative viability (MES-SA; 0.00017 µM) of 0.98 ± 0.021, a relative viability (MES-SA; 0.00051 µM) of 0.944 ± 0.026 and a relative viability (MES-SA; 0.00152 µM) of 1 ± 0.019. The relative viability (MES-SA; 0.00457 µM) was 0.985 ± 0.026, the relative viability (MES-SA; 0.01372 µM) was 0.958 ± 0.027 and the relative viability (MES-SA; 0.04115 µM) was 1.01 ± 0.04. The relative viability (MES-SA; 0.1235 µM) was 0.998 ± 0.056, the relative viability (MES-SA; 0.3704 µM) was 0.972 ± 0.057 and the relative viability (MES-SA; 1.111 µM) was 0.714 ± 0.028. It also gave a relative viability (MES-SA; 3.333 µM) of 0.461 ± 0.0064, a relative viability (MES-SA; 10 µM) of 0.547 ± 0.03 and a relative viability (RD-ES; 0.00017 µM) of 0.93 ± 0.049. For the same compound, the relative viability (RD-ES; 0.00051 µM) was 0.95 ± 0.024, the relative viability (RD-ES; 0.00152 µM) was 0.973 ± 0.03 and the relative viability (RD-ES; 0.00457 µM) was 0.956 ± 0.01. It also gave a relative viability (RD-ES; 0.01372 µM) of 0.935 ± 0.049, a relative viability (RD-ES; 0.04115 µM) of 0.94 ± 0.046 and a relative viability (RD-ES; 0.1235 µM) of 0.905 ± 0.04. The relative viability (RD-ES; 0.3704 µM) was 0.91 ± 0.048, the relative viability (RD-ES; 1.111 µM) was 0.707 ± 0.011 and the relative viability (RD-ES; 3.333 µM) was 0.462 ± 0.019. The relative viability (RD-ES; 10 µM) was 0.565 ± 0.059, the relative viability (RD; 0.00017 µM) was 0.963 ± 0.033 and the relative viability (RD; 0.00051 µM) was 1.01 ± 0.033. It also gave a relative viability (RD; 0.00152 µM) of 1.015 ± 0.0072, a relative viability (RD; 0.00457 µM) of 1 ± 0.045 and a relative viability (RD; 0.01372 µM) of 1.01 ± 0.025. For the same compound, the relative viability (RD; 0.04115 µM) was 1.01 ± 0.03, the relative viability (RD; 0.1235 µM) was 1.01 ± 0.052 and the relative viability (RD; 0.3704 µM) was 0.978 ± 0.066. It also gave a relative viability (RD; 1.111 µM) of 0.807 ± 0.047, a relative viability (RD; 3.333 µM) of 0.447 ± 0.032 and a relative viability (RD; 10 µM) of 0.45 ± 0.023. The relative viability (SK-ES-1; 0.00017 µM) was 0.928 ± 0.059, the relative viability (SK-ES-1; 0.00051 µM) was 0.948 ± 0.043 and the relative viability (SK-ES-1; 0.00152 µM) was 0.972 ± 0.03. For the same compound, the relative viability (SK-ES-1; 0.00457 µM) was 0.979 ± 0.03, the relative viability (SK-ES-1; 0.01372 µM) was 0.956 ± 0.029 and the relative viability (SK-ES-1; 0.04115 µM) was 1.02 ± 0.016. For the same compound, the relative viability (SK-ES-1; 0.1235 µM) was 0.982 ± 0.053, the relative viability (SK-ES-1; 0.3704 µM) was 0.813 ± 0.031 and the relative viability (SK-ES-1; 1.111 µM) was 0.5375 ± 0.0051. The relative viability (SK-ES-1; 3.333 µM) was 0.308 ± 0.017, the relative viability (SK-ES-1; 10 µM) was 0.394 ± 0.026 and the relative viability (SK-LMS-1; 0.00017 µM) was 1.01 ± 0.035. It also gave a relative viability (SK-LMS-1; 0.00051 µM) of 1.02 ± 0.02, a relative viability (SK-LMS-1; 0.00152 µM) of 0.9804 ± 0.00046 and a relative viability (SK-LMS-1; 0.00457 µM) of 1.017 ± 0.0069. It also gave a relative viability (SK-LMS-1; 0.01372 µM) of 0.953 ± 0.022, a relative viability (SK-LMS-1; 0.04115 µM) of 0.933 ± 0.025 and a relative viability (SK-LMS-1; 0.1235 µM) of 0.9782 ± 0.0074. For the same compound, the relative viability (SK-LMS-1; 0.3704 µM) was 0.894 ± 0.041, the relative viability (SK-LMS-1; 1.111 µM) was 0.7389 ± 0.0027 and the relative viability (SK-LMS-1; 3.333 µM) was 0.49 ± 0.016. For the same compound, the relative viability (SK-LMS-1; 10 µM) was 0.441 ± 0.021, the relative viability (SW1353; 0.00017 µM) was 1.06 ± 0.013 and the relative viability (SW1353; 0.00051 µM) was 1.09 ± 0.04. For the same compound, the relative viability (SW1353; 0.00152 µM) was 1.1 ± 0.028, the relative viability (SW1353; 0.00457 µM) was 1.08 ± 0.014 and the relative viability (SW1353; 0.01372 µM) was 1.086 ± 0.0098. The relative viability (SW1353; 0.04115 µM) was 1.08 ± 0.024, the relative viability (SW1353; 0.1235 µM) was 1.07 ± 0.035 and the relative viability (SW1353; 0.3704 µM) was 1.1 ± 0.066. For the same compound, the relative viability (SW1353; 1.111 µM) was 0.966 ± 0.024, the relative viability (SW1353; 3.333 µM) was 0.767 ± 0.018 and the relative viability (SW1353; 10 µM) was 0.739 ± 0.023. It also gave a relative viability (SW684; 0.00017 µM) of 0.979 ± 0.012, a relative viability (SW684; 0.00051 µM) of 1 ± 0.019 and a relative viability (SW684; 0.00152 µM) of 1.04 ± 0.036. It also gave a relative viability (SW684; 0.00457 µM) of 1.04 ± 0.058, a relative viability (SW684; 0.01372 µM) of 1.04 ± 0.037 and a relative viability (SW684; 0.04115 µM) of 1.04 ± 0.056. The relative viability (SW684; 0.1235 µM) was 1.05 ± 0.04, the relative viability (SW684; 0.3704 µM) was 1.01 ± 0.055 and the relative viability (SW684; 1.111 µM) was 0.943 ± 0.065. It also gave a relative viability (SW684; 3.333 µM) of 0.824 ± 0.031, a relative viability (SW684; 10 µM) of 0.834 ± 0.096 and a relative viability (SW872; 0.00017 µM) of 0.96 ± 0.055. The relative viability (SW872; 0.00051 µM) was 0.952 ± 0.1, the relative viability (SW872; 0.00152 µM) was 0.96 ± 0.082 and the relative viability (SW872; 0.00457 µM) was 0.902 ± 0.075. The relative viability (SW872; 0.01372 µM) was 0.729 ± 0.085, the relative viability (SW872; 0.04115 µM) was 0.599 ± 0.038 and the relative viability (SW872; 0.1235 µM) was 0.555 ± 0.037. For the same compound, the relative viability (SW872; 0.3704 µM) was 0.524 ± 0.035, the relative viability (SW872; 1.111 µM) was 0.459 ± 0.046 and the relative viability (SW872; 3.333 µM) was 0.335 ± 0.027. For the same compound, the relative viability (SW872; 10 µM) was 0.295 ± 0.018, the relative viability (VA-ES-BJ; 0.00017 µM) was 1.02 ± 0.051 and the relative viability (VA-ES-BJ; 0.00051 µM) was 1.04 ± 0.041. It also gave a relative viability (VA-ES-BJ; 0.00152 µM) of 1.04 ± 0.055, a relative viability (VA-ES-BJ; 0.00457 µM) of 1.03 ± 0.059 and a relative viability (VA-ES-BJ; 0.01372 µM) of 1.03 ± 0.054. The relative viability (VA-ES-BJ; 0.04115 µM) was 1.03 ± 0.017, the relative viability (VA-ES-BJ; 0.1235 µM) was 1 ± 0.039 and the relative viability (VA-ES-BJ; 0.3704 µM) was 0.989 ± 0.048. It also gave a relative viability (VA-ES-BJ; 1.111 µM) of 0.852 ± 0.024, a relative viability (VA-ES-BJ; 3.333 µM) of 0.637 ± 0.02 and a relative viability (VA-ES-BJ; 10 µM) of 0.659 ± 0.018.
